{"source": "patent US20090054319A1", "about": "“Methods and Compositions for the Treatment of Hypertension and Gastrointestinal Disorders” (MICROBIA, INC., priority 2005, published 2009)", "key": {"chymotrypsin [1]": {"tested_on": "chymotrypsin", "conditions": "cited from earlier work"}, "[2]": {"tested_on": "intestinal fluid secretion", "conditions": "suckling mouse model; Santos-Neto et al 2003 Pharm & Toxicol 92:114; cited from earlier work"}, "chymotrypsin [3]": {"target": "T1, chymotrypsin (Bos taurus, UniProt P00766, DEL14-15/DEL147-148)", "T1 construct": "purchased Sigma C6423", "experiment": "T84 cGMP assay to assess guanylin activity after a chymotrypsin digestion assay (guanylin degradation assay)", "type": "biochemical, bovine", "conditions": "T84 cells, FIG. 1", "protocol": "Since guanylin is susceptible to digestion by chymotrypsin, chymotrypsin activity can be assayed based on guanylin cleavage. […] From this stock, six (6) 500 μl aliquots were prepared in 2 ml Eppendorf tubes and labeled “Control”, “T0”, “T15”, “T30”, “T60”, and “T180”, with “T_” representing timepoints, in minutes. 5 μl of a 10 mM chymostatin (Sigma, C7268) stock (5 mg of chymostatin resuspended in 824 μl of DMSO) was added to the “Control” samples and all samples were incubated for 5 minutes at 30° C. Chymostatin inhibits chymotrypsin activity and this sample served as a negative control. Next, 20 μl of a chymotrypsin (Sigma, C6423) enzyme solution (0.01 mg/ml bovine chymotrypsin enzyme in 1 mM HCl, 2 mM Calcium Chloride) were added to the samples and mixed by inversion. Samples are incubated at 30° C. […] Determination of sensitivity to digestion by chymotrypsin was determined by LCMS analysis and by in vitro activity in the T84 cGMP assays described below.\nThe ability of guanylin to activate the intestinal GC-C receptor was assessed in an assay employing the T84 human colon carcinoma cell line (American Type Culture Collection (Bethesda, Md.). For the assays cells were grown to confluency in 24-well culture plates with a 1:1 mixture of Ham's F12 medium and Dulbecco's modified Eagle's medium (DMEM), supplemented with 5% fetal calf serum and were used at between passages 54 and 60. […]"}}, "note": "Bridges are numbered along the chain shown (N, C = ends). Where no end group is shown, it is not given here."}
{"compound": "CC(C)C[C@H](NC(=O)[C@@H](NC(=O)N[C@@H](Cc1ccccc1)C(=O)O)C1CCNC(=N)N1)C(=O)N[C@H](C=O)Cc1ccccc1", "note": "(stereo partly drawn) [chymostatin, N—(Na-Carbonyl-[S,S]-a-(2-Iminohexahydro-4-pyrimidyl)glycine)-X-Phe-al)-Phe where X is Leu, Val or Ile]", "values": [{"measurement": "chymotrypsin-mediated inactivation of guanylin", "setting": "chymotrypsin [1]", "value": "can be prevented"}, {"measurement": "guanylin-induced intestinal fluid secretion", "setting": "[2]", "value": "required in order to observe guanylin-induced intestinal fluid secretion"}, {"measurement": "guanylin stimulated cGMP activity when chymotrypsin inhibitor present", "setting": "chymotrypsin [3]; chymostatin present during chymotrypsin digestion of guanylin", "value": "retained"}]}
{"compound": "guanylin: intestinal peptide that stimulates chloride secretion; mature protein has 15 amino acids; agonist of the GC-C receptor (PGTCEICAYAACTGC; disulfide 4-12, 7-15; UniProt Q02747 101-115, looked up)", "values": [{"measurement": "cleavage of guanylin by chymotrypsin", "setting": "chymotrypsin [1]; Greenberg et al. J Investig Med 45:276-82, 1997", "value": "chymotrypsin can cleave guanylin"}, {"measurement": "guanylin stimulated cGMP activity", "setting": "chymotrypsin [3]; in the presence of chymotrypsin, timepoints 0-180 min at 30° C.", "value": "decreases over time"}]}
{"compound": "bovine chymotrypsin enzyme (Sigma, C6423)", "values": [{"measurement": "guanylin degradation assay: loss of guanylin-stimulated cGMP activity and LC/MS of guanylin processing", "setting": "Guanylin (Sigma, G-116)", "value": "guanylin stimulated cGMP activity decreases over time in the presence of chymotrypsin"}]}
